{"source": "patent US20250032624A1", "about": "“SMALL MOLECULE DEGRADATION METHODS FOR TREATING ALS/FTD” (University of Florida Research Foundation, Incorporated, priority 2021, published 2025)", "key": {"[1]": {"tested_on": "induced pluripotent stem cells (iPSCs)", "experiment": "Cell viability in iPSCs", "type": "cell-based, human", "settings": "doses up to 1 μM", "protocol": "Patient-derived LCLs were seeded overnight in 96-well plates (˜10^4 cells/well) and treated with compounds for 96 hours. Cell viability was measured using the CellTiter-Fluor™ Cell Viability Assay (Promega) per the manufacturer's protocol. iPSC cell viability was measured by seeding cells in Matrigel-coated 6-well plates with Basal medium (iPSC maintenance described above). After overnight incubation, the medium was replaced with fresh medium containing compounds diluted in 0.1% DMSO. Cells were treated with compound for 96 hours. Cell viability was measured using the AlamarBlue™ Cell Viability Reagent (DAL1025, Thermo Fisher Scientific) per the manufacturer's protocol. iPSN cell viability was measured by […]"}, "[2]": {"tested_on": "r(G4C2)^exp-containing foci", "experiment": "RNA FISH of r(G4C2)exp-containing nuclear foci in cortex of +/+PWR500 mice", "type": "in vivo, mouse", "settings": "+/+PWR500 mice vs vehicle", "protocol": "A total of 20 age- and gender-matched mice (12 +/+PWR500 [5 Male and 7 Female] and 8 WT [4 Male and 4 Female]), ranging from 18-21 weeks old were used in therapeutic efficacy studies (Table 4). Mice were treated with a single bolus injection of 33 nmol of compound 2 formulated in 1% (v/v) DMSO/99% water, administered by an intracerebroventricular injection (ICV). Three weeks post injection, mice were euthanized, and tissue was harvested for study.\nPostmortem brain tissue was excised and sliced along the sagittal plane at the midline. The right hemisphere was flash frozen with Optimal Cutting Temperature (OCT) compound in 2-methylbutane in liquid nitrogen. Frozen tissue was sectioned ([…]) using a cryostat and slides were stained as previously described.^39 Briefly, frozen sections were fixed in 4% paraformaldehyde in 1×DPBS for 20 minutes then incubated in ice cold 70% ethanol at 4° C. for 30 minutes. Once fixed, slides were incubated for 10 minutes in 40% formamide in 2×SSC Buffer at room temperature. Slides were blocked in 1× Hybridization Buffer (40% formamide, 2×SSC Buffer, […] BSA, 100 mg/mL dextran sulfate, 250 μg/mL tRNA, and 2 mM vanadyl sulfate) for 30 minutes at 55° C. Slides were then incubated for 3 hours at 55° C. with 200 ng/mL of FISH probe (Table 1) in 1× Hybridization Buffer. […]"}}, "data": [{"compound": "CCOC(=O)C1=C(Nc2ccccc2)S/C(=C\\c2ccc(OCCOCCOCCOCCNC(=O)CCCOc3ccc4c(c3)c3cc5c(C(=O)N[C@H](C)CN(C)C)nccc5c(C)c3n4C)c(O)c2)C1=O", "note": "[ALS Compound Formula I]", "values": [{"measurement": "toxicity", "setting": "[1]", "value": "no significant toxicity"}, {"measurement": "number of r(G4C2)^exp-containing foci in the nuclei of cortex neurons", "setting": "[2]", "value": "significantly reduced"}]}]}
